From US20250099475A1, “METHODS OF TREATING HYPERTENSION BY PERIODIC SUPPRESSION OF ALDOSTERONE SYNTHASE” (Mineralys Therapeutics, Inc., priority 2022, published 2025)

Columns and labels:
[1] = tested on: subjects with hypertension; assay: Double-blinded, randomized, placebo-controlled trial in subjects with hypertension (Example 2; AOBP week 4, serum K+); format: in vivo, human
Protocol: A double-blinded, randomized, placebo-controlled trial on the safety and efficacy of Compound A HBr was conducted on subjects with hypertension.
Hypertensive subjects were randomly assigned to one of the following six experimental groups: • (a) Placebo group: Oral administration of a placebo tablet matched for size, color, and shape of study drug once in the morning each day; • (b) 12.5 mg BID: Oral administration of one tablet containing 12.5 mg of Compound A HBr once in the morning and evening, 12 hours apart each day; • (c) 25 mg BID: Oral administration of one tablet containing 25 mg of Compound A HBr once in the morning and evening, 12 hours apart each day; • (d) 12.5 mg QD: Oral administration of one tablet containing 12.5 mg of Compound A HBr once in the morning each day; • (e) 50 mg QD: Oral administration of two tablets containing 25 mg of Compound A HBr once in the morning each day; and • (f) 100 mg QD: Oral administration of one tablet containing 100 mg of Compound A HBr once in the morning each day.
Subjects in the study met the following inclusion criteria: • (a) Male and nonpregnant, nonlactating female subjects ≥18 years of age; • (b) Written informed consent Health Insurance Portability and Accountability Act authorization, and local patient privacy required documentation for this study have been obtained; • (c) Automated office blood pressure (AOBP) with SBP ≥130 mm Hg; • (d) Background antihypertensive treatment of ≥2 drugs; • (e) PRA ≤1.0 ng/mL; • (f) Serum aldosterone ≥1 ng/dL; and • (g) Morning serum cortisol in normal range. If baseline serum cortisol <18 mcg/dL, then baseline Cortrosyn stimulation test administered at baseline.
Prospective subjects were also excluded based on the following exclusion criteria: • (a) Concomitant use of epithelial sodium channel inhibitors or mineralocorticoid receptor antagonists; • (b) Subjects with hypokalemia; • (c) Subjects with hyperkalemia; • (d) Subjects with serum cortisol <3 mcg/dL; • (e) Subjects with serum sodium <135 mEq/L; • (f) Subjects with estimated glomerular filtration rate <60 mL/min/1.73 m2; • (g) Subjects with type 1 or uncontrolled (hemoglobin A1c ≥9%) type 2 diabetes mellitus; • (h) Subjects with body mass index >40 kg/m2; • (i) Subjects with unstable angina; • (j) Subjects with SBP ≥175 mm Hg or DBP ≥100 mm Hg; • (k) Subjects with a decrease in SBP ≥20 mm Hg or DBP ≥10 mm Hg from sitting to standing position; • (l) Subjects who, in the opinion of the investigator, have suspected nonadherence to antihypertensive treatment; • (m) Subjects who, in the opinion of the investigator, have any major medical illness or symptoms; • (n) Subjects who, in the opinion of the investigator, have any acute or chronic medical or psychiatric condition; • (o) Subjects undergoing treatment with any of the following medications: • (i) Topical corticoids; • (ii) Sympathomimetic decongestants; • (iii) Theophylline; • (iv) Phosphodiesterase type 5 inhibitors; • (v) NSAIDs; • (vi) Intramuscular steroids; • (vii) Estrogen; • (viii) Cytochromes; • (ix) Strong CYP3A and CYP3A4 inducers; • (p) Subjects with known hypersensitivity to Compound A HBr or any of the excipients; and • (q) Subjects who are night-shift workers.

cardiovascular system = assay: Cardiovascular system in halothane-anesthetized dogs; format: in vivo, dog; settings: intravenous infusion up to 3-mg/kg as free base; non-GLP
Protocol: Effects of Compound A on the cardiovascular system were evaluated with halothane-anesthetized dogs. Doses of 0, 0.3, 1, and 3 mg/kg of Compound A as free base were infused intravenously in ascending order to the same 3 male dogs at 0.1 mL/kg/min for 10 minutes cumulatively with 30 minutes interval between the start of infusion. Heart rate, systolic, diastolic, and mean blood pressure, cardiac output, total peripheral resistance, left ventricular end-diastolic pressure, maximum upstroke velocity of the left ventricular pressure, and electrocardiogram parameters (PR interval, QRS duration, QT interval, and QTcV) were evaluated.

Sprague Dawley rats = assay: 13-week repeat-dose oral toxicology study in rats; format: in vivo, rat; settings: 13-week daily dosing, doses ≥150 mg/kg/d
Protocol: (§1) The toxicologic profile of Compound A was assessed in several toxicology studies, including 13-week repeat-dose oral studies in Sprague Dawley rats and cynomolgus monkeys, a standard battery of genotoxicity studies, preliminary embryo-fetal development studies in rats and rabbits, and in vitro and in vivo phototoxicity studies. Rats and monkeys were selected for the general toxicology studies on the basis of pharmacology and metabolism data that indicated these animals would have metabolism similar to that of humans. Studies were performed in accordance with GLP regulations.
(§2) Doses in the 13-week toxicology studies were 0, 50, 150, 450 (female), and 600 (male) mg/kg/d in Sprague Dawley rats. In cynomolgus monkeys (females and males), the doses were 0, 10, 30, and 100 mg/kg/d. Hematoxylin-and-eosin-stained sections (nominal thickness of approximately 5 μm) were prepared from the formalin-fixed paraffin-embedded organs/tissues of all animals in the toxicology studies.

[2] = 13-week repeat-dose oral toxicology study in rats; format: in vivo, rat; settings: both sexes, Sprague Dawley, rat, in vivo, oral, 13-week, read-out: no observed adverse effect level (NOAEL)
Protocol: as §1, §2

[3] = 13-week repeat-dose oral toxicology study in monkeys; format: in vivo, cynomolgus monkey; settings: cynomolgus monkey, in vivo, oral
Protocol: as §1, §2

cynomolgus monkeys = assay: as above; format: in vivo, cynomolgus monkey
Protocol: as §1, §2

[4] = tested on: 46 targets in receptor binding and enzyme inhibition studies; assay: Pan-receptor screening
Source text: Compound A, at a concentration of 10 μmol/L, was screened against 46 targets in receptor binding and enzyme inhibition studies to determine if Compound A interacted with any off-target enzymes or receptors.

SMILES: CC(=O)N[C@H]1CC[C@H](NC(=O)CN2CCN(c3nncc(-c4ccc(C)cc4)n3)CC2)CC1 [Compound A HBr]
- Reduction in systolic blood pressure from baseline at week 4, dose cohort vs placebo, Mean (SEM) ([1]; 12.5 mg BID): 1.2 (5.2)
- Systolic BP by AOBP, Change (Wk 4 v. BL), Mean ([1]; 12.5 mg BID, N 10): −5.3 mmHg
- Systolic BP by AOBP, Change (Wk 4 v. BL), Median ([1]; 12.5 mg BID, N 10): −4.5 mmHg
- Systolic BP by AOBP, Week 4, Mean ([1]; 12.5 mg BID, N 10): 138 mmHg
- Systolic BP by AOBP, Week 4, Median ([1]; 12.5 mg BID, N 10): 133 mmHg
- Reduction in systolic blood pressure from baseline at week 4, dose cohort vs placebo, Mean (SEM) ([1]; 12.5 mg QD): 3.85 (6.1)
- Systolic BP by AOBP, Change (Wk 4 v. BL), Mean ([1]; 12.5 mg QD, N 10): −7.9 mmHg
- Systolic BP by AOBP, Change (Wk 4 v. BL), Median ([1]; 12.5 mg QD, N 10): −2.25 mmHg
- Systolic BP by AOBP, Week 4, Mean ([1]; 12.5 mg QD, N 10): 138.9 mmHg
- Systolic BP by AOBP, Week 4, Median ([1]; 12.5 mg QD, N 10): 139 mmHg
- Reduction in systolic blood pressure from baseline at week 4, dose cohort vs placebo, Mean (SEM) ([1]; 25 mg BID): 11.5 (5.1)
- Systolic BP by AOBP, Change (Wk 4 v. BL), Mean ([1]; 25 mg BID, N 11): −15.5 mmHg
- Systolic BP by AOBP, Change (Wk 4 v. BL), Median ([1]; 25 mg BID, N 11): −20.0 mmHg
- Systolic BP by AOBP, Week 4, Mean ([1]; 25 mg BID, N 11): 132.1 mmHg
- Systolic BP by AOBP, Week 4, Median ([1]; 25 mg BID, N 11): 132 mmHg
- Reduction in systolic blood pressure from baseline at week 4, dose cohort vs placebo, Mean (SEM) ([1]; 50 mg QD): 6.3 (4.9)
- Systolic BP by AOBP, Change (Wk 4 v. BL), Mean ([1]; 50 mg QD, N 12): −10.3 mmHg
- Systolic BP by AOBP, Change (Wk 4 v. BL), Median ([1]; 50 mg QD, N 12): −8.75 mmHg
- Systolic BP by AOBP, Week 4, Mean ([1]; 50 mg QD, N 12): 132.1 mmHg
- Systolic BP by AOBP, Week 4, Median ([1]; 50 mg QD, N 12): 133 mmHg
- Reduction in systolic blood pressure from baseline at week 4, dose cohort vs placebo, Mean (SEM) ([1]; 100 mg QD): 15 (5.4)
- median increase in serum potassium (K+) ([1]; 100 mg QD cohort): 0.2 mmol/L
- subjects with dose held or dose reduction related to elevated K+ ([1]; 100 mg QD cohort): No subjects
- Systolic BP by AOBP, Change (Wk 4 v. BL), Mean ([1]; 100 mg QD, N 10): −19.0 mmHg
- Systolic BP by AOBP, Change (Wk 4 v. BL), Median ([1]; 100 mg QD, N 10): −20.25 mmHg
- Systolic BP by AOBP, Week 4, Mean ([1]; 100 mg QD, N 10): 126.1 mmHg
- Systolic BP by AOBP, Week 4, Median ([1]; 100 mg QD, N 10): 124 mmHg

SMILES: CC(=O)N[C@H]1CC[C@H](NC(=O)CN2CCN(c3nncc(-c4ccc(C)cc4)n3)CC2)CC1 [Compound A]
- effects on the cardiovascular system (cardiovascular system): no effects
- histopathological findings (Sprague Dawley rats): vacuolation of zona fasciculata cells and hypertrophy of zona glomerulosa cells in the adrenal glands
- NOAEL at 13 weeks [2]: 50 mg/kg/day
- NOAEL at 13 weeks ([3]; female monkeys): 10 mg/kg/day
- NOAEL at 13 weeks ([3]; male monkeys): 30 mg/kg/day
- effects on electrocardiogram values (cynomolgus monkeys; doses up to 100 mg/kg/d): no Compound A-related effects
- effect on cortisol (cynomolgus monkeys; monkeys): no effects on cortisol
- adrenal findings (cynomolgus monkeys; monkeys, all dose levels (10, 30, 100 mg/kg/d)): Hypertrophy of zona glomerulosa cells in the adrenal cortices and decreased PACs
- inhibition of 46 primary molecular target receptors or enzymes ([4]; 10 μmol/L): did not substantially inhibit
- IC50 ([4]; any of 46 targets, read-out: IC50 for off-target receptors or enzymes): > 10 µM
